Results as given in patent US12521444B2, “Anti-HER2 antibody-drug conjugates and uses thereof” (Fortvita Biologics Limited, priority 2021, dated 2026).

Key:
MDA-MB-468 = assay: In vitro cytotoxicity assay (CCK-8) in MDA-MB-468; assay type: cell-based; details: Homo sapiens, toxins (expected metabolites of the ADCs), 120 hours
Description: (§1) Dispensed 175 μL cell suspension in 96-well plate at 1500 cells per well and incubate for 24 hours in a humidified incubator (37° C., 5% CO2). […] Added 25 μL various concentrations of compound as a […] solution into the cell culture medium (Fetal bovine serum, Invitrogen) in the plate and incubated for 120 hours in the incubator. Thawed CCK-8 on the bench top or in a 37° C. water bath, added 10 μL of CCK-8 to each well of the incubated plate (be careful not introducing air bubbles into the wells since they would interfere with the O. D. reading) and then further incubated for 1-4 hours in the incubator. Measured the absorbance at 450 nm using a SpectraMax i3× Microplate Reader and calculated the cell inhibition rate. The IC50 curves were generated along with the IC50 values by using GraphPad Prism software.

JIMT-1 = assay: cells; assay type: cell-based, human; details: for IC50: Homo sapiens, JIMT-1, toxins (expected metabolites of the ADCs), 120 hours
Description: as §1

NCI-N87 = assay: In vitro cytotoxicity assay (CCK-8) in NCI-N87; assay type: cell-based; details: Homo sapiens, toxins (expected metabolites of the ADCs), 120 hours
Description: as §1

SK-BR-3 = assay: In vitro cytotoxicity assay (CCK-8) in SK-BR-3; assay type: cell-based; details: Homo sapiens, toxins (expected metabolites of the ADCs), 120 hours
Description: as §1

MCF-7 = assay: In vitro cytotoxicity assay (CCK-8) in MCF-7; assay type: cell-based; details: Homo sapiens, MCF7; toxins (expected metabolites of the ADCs), 120 hours
Description: as §1

SK-OV-3 = assay: In vitro cytotoxicity assay (CCK-8) in SK-OV-3; assay type: cell-based; details: Homo sapiens, toxins (expected metabolites of the ADCs), 120 hours
Description: as §1

OVCAR-3 = assay: In vitro cytotoxicity assay (CCK-8) in OVCAR-3; assay type: cell-based; details: Homo sapiens, toxins (expected metabolites of the ADCs), 120 hours
Description: as §1

SMILES	IC50 (MDA-MB-468) [nM]	IC50 (JIMT-1) [nM]	IC50 (NCI-N87) [nM]	IC50 (SK-BR-3) [nM]	IC50 (MCF-7) [nM]	IC50 (SK-OV-3) [nM]	IC50 (OVCAR-3) [nM]	cytotoxic potency relative to DXd (JIMT-1)
CCc1c2c(nc3cc(F)c(C)c(CCCCO)c13)-c1cc3c(c(=O)n1C2)COC(=O)[C@]3(O)CC	> 30	> 30	> 30	> 30	–	–	–	–
CC[C@@]1(O)C(=O)OCc2c1cc1n(c2=O)Cc2c-1nc1cc(F)c(C)c3c1c2[C@@H](NC(=O)CO)CC3 [DXd, reference compound]	–	–	3.6	1.9	–	–	–	–
CC[C@@]1(O)C(=O)OCc2c1cc1n(c2=O)Cc2cc3c(CCCCO)c(C)c(F)cc3nc2-1 [MB-1, (19S)-19-ethyl-6-fluoro-19-hydroxy-8-(4-hydroxybutyl)-7-methyl-17-oxa-3,13-diazapentacyclo[11.8.0.0^2,11.0^4,9.0^15,20]henicosa-1(21),2,4,6,8,10,15(20)-heptaene-14,18-dione]	0.42	0.78	1.3	0.77	0.37	1	0.1	ten folds more potent than DXd
